Patent US7704975B2, “Modafinil compound and cyclodextrin mixtures” (Cephalon, Inc., priority 2000, dated 2010)
Values after ≈ are worked out from the molar mass of the structure shown. Read-outs that look alike come from different tables or passages of the source.

Experiments:
[1] = Aqueous solubility of modafinil, alone and in HPβCD solutions; assay type: physicochemical; conditions: thermodynamic from solid
Protocol: The following HPLC method may be used to measure the modafinil compound content in the compositions. Filter a solution saturated with a modafinil compound through a 1.2 μm syringe filter. Dilute 10 μL of the clear solution to 1 mL with 990 μL of dimethylsulfoxide (Fischer Certified ACS grade). Take 10 μL of the diluted solution for the HPLC analysis, with the following representative column conditions: • Flow rate: 1.2 mL/min. • Column: ODS, 4.6×20 mm, Column Temp: 30° C. • Mobil phase: 80%(65% Acetonitrile/35%1M phosphate buffer) 20% water • Analysis time: 5 minutes • Wavelength: 222 nanometers
Concentration can be calculated by comparison to area from a modafinil compound standard used at 0.4 mg/mL with appropriate dilution.

mice = conditions: single administration; cited from earlier work
monkeys = conditions: single administration; cited from earlier work

Question: Which results are given for `NC(=O)C[S+]([O-])C(c1ccccc1)c1ccccc1` (stereo not drawn) [modafinil, 2-(benzhydryl-sulfinyl)acetamide]?
Answer: solubility ([1]; aqueous with cosolvent or surfactant or cyclodextrin, 2% HPβCD solution, from 1:1 complex, read-out: amount solubilized): ~4.4 mg/mL (≈ 16.1 mM); solubility ([1]; aqueous with cosolvent or surfactant or cyclodextrin, 20% HPβCD solution, from 1:1 complex, read-out: amount solubilized): ~39.5 mg/mL (≈ 144 mM); solubility ([1]; aqueous with cosolvent or surfactant or cyclodextrin, 40% HPβCD solution, from 1:1 complex, read-out: amount solubilized): ~78.4 mg/mL (≈ 287 mM); solubility ([1]; water without cyclodextrin, water, read-out: aqueous solubility): 0.44 mg/mL (≈ 1.61 mM); locomotor activity (mice): increased locomotor activity; nocturnal activity (monkeys): increased nocturnal activity
